# Data taken from patent publication US20240206463A1, “AGROCHEMICAL COMPOSITION” (NOURYON CHEMICALS INTERNATIONAL B.V., priority 2021, published 2024).
# Where two headings read alike, the source gives them in different places.
# Assays:
# [1] = Diluents lowering the melting point of pelargonic acid: visual appearance (crystal/clear) of pelargonic acid/diluent blends at low temperature
# [2] = Wetting/spreading of a drop on a hydrophobic polystyrene dish; assay type: physicochemical; conditions: in water (0.5-3.7%)
# Text: It was unexpectedly discovered that there is a synergy in wetting/spreading between C9 acid and phosphate ester exemplified by PE2 (C1216-30 phosphate ester). […] That is, a drop of the solution balls up with a large contact angle on the dish.
# [3] = pelargonic acid 30 wt % + diluent 70 wt %
# [4] = pelargonic acid 50 wt % + diluent 50 wt %
# [5] = pelargonic acid 60 wt % + diluent 40 wt %
# [6] = pelargonic acid 70 wt % + diluent 30 wt %
# [7] = pelargonic acid 80 wt % + diluent 20 wt %
# [8] = pelargonic acid 65 wt % + diluent 35 wt %
# [9] = pelargonic acid 75 wt % + diluent 25 wt %
SMILES,diluent amount required to lower the melting point of pelargonic acid to 0° C. (or lower) [1],"appearance at 0° C. [1, 3]","appearance at −20° C. [1, 3]","appearance at 0° C. [1, 4]","appearance at −20° C. [1, 4]","appearance at 0° C. [1, 5]","appearance at −20° C. [1, 5]","appearance at 0° C. [1, 6]","appearance at −20° C. [1, 6]","appearance at 0° C. [1, 7]","appearance at −20° C. [1, 7]","appearance at 0° C. [1, 8]","appearance at −20° C. [1, 8]","appearance at 0° C. [1, 9]","appearance at −20° C. [1, 9]",ability to wet a hydrophobic polystyrene dish [2],appearance at 0° C. [1],appearance at −20° C. [1]
"CCCCC(CC)C(=O)O (stereo not drawn) [2-EH acid, 2-ethyhexanoic acid]",30%,Clear,Clear,Clear,Crystal,Clear,Crystal,Clear,Crystal,Crystal,Crystal,,,,,,,
"CCCCC(CC)CO (stereo not drawn) [2-EH alcohol, 2-ethylhexanol]",30%,Clear,Clear,Clear,Crystal,Clear,Crystal,Clear,Crystal,Crystal,Crystal,,,,,,,
CCCCOC(C)=O [Butyl Acetate],,Clear,Clear,Clear,Crystal,,,Clear,Crystal,,,Clear,Crystal,Clear,Crystal,,,
"CCCCCCCCC(=O)O [C9 acid, pelargonic acid]",,,,,,,,,,,,,,,,not able to wet,,
COC(=O)c1ccccc1 [Methyl benzoate],,,,,,,,,,,,,,,,,Clear,Crystal
CCOP(=O)(OCC)OCC [triethylphosphate],,,,,,,,,,,,,,,,,Clear,

# Now from value to molecule, other results behind:
diluent amount required to lower the melting point of pelargonic acid to 0° C. (or lower) [1],"appearance at 0° C. [1, 3]","appearance at −20° C. [1, 3]","appearance at 0° C. [1, 4]","appearance at −20° C. [1, 4]","appearance at 0° C. [1, 5]","appearance at −20° C. [1, 5]","appearance at 0° C. [1, 6]","appearance at −20° C. [1, 6]","appearance at 0° C. [1, 7]","appearance at −20° C. [1, 7]","appearance at 0° C. [1, 8]","appearance at −20° C. [1, 8]","appearance at 0° C. [1, 9]","appearance at −20° C. [1, 9]",ability to wet a hydrophobic polystyrene dish [2],SMILES,appearance at 0° C. [1],appearance at −20° C. [1]
25%,,,,,,,,,,,,,Clear,Crystal,,CCCCCCC(=O)O [Heptanoic acid],,
35%,,,Clear,Crystal,,,Crystal,Crystal,,,Clear,Crystal,Crystal,Crystal,,COC(=O)c1ccccc1O [Methyl salicylate],,
30%,Clear,Crystal,Clear,Crystal,,,Crystal,Crystal,,,Crystal,Crystal,Crystal,Crystal,,CCCCCCCCOC(=O)C(C)O (stereo not drawn) [Octyl lactate],,
30%,,,,,,,Clear,Crystal,,,,,,,,"CCCCC(=O)O [Valeric C5 acid, valeric acid]",,
,Clear,Clear,Clear,Crystal,,,Clear,Crystal,,,Clear,Crystal,Crystal,Crystal,,C=C(C)[C@H]1CC=C(C)CC1 [d-limonene],,
